Key:
Format in all cases: cell-based
Aeromonas hydrophila = test: MIC against Gram-negative bacteria: Aeromonas hydrophila; settings: 5×10^5 CFU/mL
Summary of the method: (§1)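 Antibacterial activity of purified human EGF domain proteins: two-fold concentration series, triplicate wells, LB broth, 5×10^5 CFU/mL bacteria, 37° C shaking incubation. The lowest concentration without growth defines the MIC.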

E. coli DH5α = test: Antibacterial activity: MIC and growth curve against E. coli DH5α in 96-well plate; settings: minimal inhibitory concentration against E. coli DH5α; 96-well plate, 5×10^5 CFU/mL, 37° C., judged after 8 h
Summary of the method: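 Log-phase DH5α (OD600 about 0.5, 37° C, 185 rpm in LB) was pelleted, resuspended in fresh LB and seeded at 5×10^5 CFU/mL with recombinant protein at 50, 25 and 12.5 μg/mL (two-fold series), in triplicate. Plates were shaken at 175 rpm, 37° C, and OD600 was read every 30 min. MIC was the lowest concentration with no growth.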

Pseudomonas aeruginosa = test: MIC against Gram-negative bacteria: Pseudomonas aeruginosa; settings: 5×10^5 CFU/mL
Summary of the method: as §1

E. coli BL21 = test: MIC against Gram-negative bacteria: E. coli BL21; settings: 5×10^5 CFU/mL
Summary of the method: as §1

Enterobacter cloacae = test: MIC against Gram-negative bacteria: Enterobacter cloacae; settings: 5×10^5 CFU/mL
Summary of the method: as §1

Proteus mirabilis = test: MIC against Gram-negative bacteria: Proteus mirabilis; settings: 5×10^5 CFU/mL
Summary of the method: as §1

Serratia marcescens = test: MIC against Gram-negative bacteria: Serratia marcescens; settings: 5×10^5 CFU/mL
Summary of the method: as §1

Klebsiella pneumonia = test: MIC against Gram-negative bacteria: Klebsiella pneumonia; settings: 5×10^5 CFU/mL
Summary of the method: as §1

Proteus vulgaris = test: MIC against Gram-negative bacteria: Proteus vulgaris; settings: 5×10^5 CFU/mL
Summary of the method: as §1

Moraxella catarrhalis = test: MIC against Gram-negative bacteria: Moraxella catarrhalis; settings: 5×10^5 CFU/mL
Summary of the method: as §1

Citrobacter diversus = test: MIC against Gram-negative bacteria: Citrobacter diversus; settings: 5×10^5 CFU/mL
Summary of the method: as §1

[1] = A. hydrophila, 10 h cultivation at 37° C.
[2] = P. aeruginosa, 10 h cultivation at 37° C.
[3] = E. coli BL21, 10 h cultivation at 37° C.
[4] = E. cloacae, 10 h cultivation at 37° C.
[5] = P. mirabilis, 10 h cultivation at 37° C.
[6] = S. marcescens, 10 h cultivation at 37° C.
[7] = K. pneumonia, 10 h cultivation at 37° C.
[8] = P. vulgaris, 10 h cultivation at 37° C.
[9] = M. catarrhalis, 10 h cultivation at 37° C.
[10] = C. diversus, 10 h cultivation at 37° C.
[11] = 10 h cultivation at 37° C., two-fold serial dilution

“PRT312 (DNNECTSDINLCGSKGICQNTPGSFTCECQRGFSLDQTGSSCE; listed as Homo sapiens)” showed an MIC (Aeromonas hydrophila; [1]) of 25 µg/mL, an MIC (E. coli DH5α) of 50 µg/mL and an MIC (Pseudomonas aeruginosa; [2]) of 50 µg/mL. For the same substance, the MIC (E. coli BL21; [3]) was 12.5 µg/mL, the MIC (Enterobacter cloacae; [4]) was 12.5 µg/mL and the MIC (Proteus mirabilis; [5]) was 12.5 µg/mL. It also gave an MIC (Serratia marcescens; [6]) of 50 µg/mL, an MIC (Klebsiella pneumonia; [7]) of 25 µg/mL and an MIC (Proteus vulgaris; [8]) of 25 µg/mL. It also gave an MIC (Moraxella catarrhalis; [9]) of 25 µg/mL and an MIC (Citrobacter diversus; [10]) of 50 µg/mL.
In the case of “PRT830 (CALGNGGCQHHCVQLTITRHRCQCRPGFQLQEDGRHC; listed as Homo sapiens)”, the “MIC (μg/mL) A. hydrophila” value (Aeromonas hydrophila; [1]) is reported as 12.5 µg/mL, the MIC (E. coli DH5α) is reported as 12.5 µg/mL and the “MIC (μg/mL) P. aeruginosa” value (Pseudomonas aeruginosa; [2]) is reported as 12.5 µg/mL. For the same substance, the “MIC (μg/mL) E. coli BL21” value (E. coli BL21; [3]) was 12.5 µg/mL, the “MIC (μg/mL) E. cloacae” value (Enterobacter cloacae; [4]) was 25 µg/mL and the “MIC (μg/mL) P. mirabilis” value (Proteus mirabilis; [5]) was 25 µg/mL. The “MIC (μg/mL) S. marcescens” value (Serratia marcescens; [6]) was 12.5 µg/mL, the “MIC (μg/mL) K. pneumonia” value (Klebsiella pneumonia; [7]) was 12.5 µg/mL and the “MIC (μg/mL) P. vulgaris” value (Proteus vulgaris; [8]) was 12.5 µg/mL. For the same substance, the “MIC (μg/mL) M. catarrhalis” value (Moraxella catarrhalis; [9]) was 12.5 µg/mL and the “MIC (μg/mL) C. diversus” value (Citrobacter diversus; [10]) was 25 µg/mL.
With “PRT166 (NGSPCQHGGTCVDDEGRASHASCLCPPGFSGNFCE; listed as Homo sapiens)” the “MIC (μg/mL) A. hydrophila” value (Aeromonas hydrophila; [1]) was 12.5 µg/mL, the MIC (E. coli DH5α) was 12.5 µg/mL and the “MIC (μg/mL) P. aeruginosa” value (Pseudomonas aeruginosa; [2]) was 12.5 µg/mL. The “MIC (μg/mL) E. coli BL21” value (E. coli BL21; [3]) was 25 µg/mL, the “MIC (μg/mL) E. cloacae” value (Enterobacter cloacae; [4]) was 12.5 µg/mL and the “MIC (μg/mL) P. mirabilis” value (Proteus mirabilis; [5]) was 12.5 µg/mL. The “MIC (μg/mL) S. marcescens” value (Serratia marcescens; [6]) was 50 µg/mL, the “MIC (μg/mL) K. pneumonia” value (Klebsiella pneumonia; [7]) was 25 µg/mL and the “MIC (μg/mL) P. vulgaris” value (Proteus vulgaris; [8]) was 12.5 µg/mL. The “MIC (μg/mL) M. catarrhalis” value (Moraxella catarrhalis; [9]) was 12.5 µg/mL and the “MIC (μg/mL) C. diversus” value (Citrobacter diversus; [10]) was 12.5 µg/mL.
In the case of “PRT1045 (HGPGCQEHCLCLHGGVCQATSGLCQCAPGYTGPHCA; listed as Homo sapiens)”, the “MIC A. hydrophila” value (Aeromonas hydrophila; [11]) is reported as 50 µg/mL, the MIC (E. coli DH5α) is reported as 25 µg/mL and the “MIC P. aeruginosa” value (Pseudomonas aeruginosa; [11]) is reported as 25 µg/mL. The “MIC E. coli BL21” value (E. coli BL21; [11]) was 50 µg/mL, the “MIC E. cloacae” value (Enterobacter cloacae; [11]) was 12.5 µg/mL and the “MIC P. mirabilis” value (Proteus mirabilis; [11]) was 12.5 µg/mL. The “MIC S. marcescens” value (Serratia marcescens; [11]) was 50 µg/mL, the “MIC K. pneumonia” value (Klebsiella pneumonia; [11]) was 50 µg/mL and the “MIC P. vulgaris” value (Proteus vulgaris; [11]) was 50 µg/mL. The “MIC M. catarrhalis” value (Moraxella catarrhalis; [11]) was 50 µg/mL and the “MIC C. diversus” value (Citrobacter diversus; [11]) was 50 µg/mL.
In the case of “PRT31 (CDCYPVGSTSRSCAPHSGQCPCRPGALGRQCNSCDSPFAEVTASGC; listed as Homo sapiens)”, the “MIC (μg/mL) A. hydrophila” value (Aeromonas hydrophila; Aeromonas hydrophila, 96-well plate, 37° C., 10 h) is reported as 25 µg/mL, the MIC (E. coli DH5α) is reported as 25 µg/mL and the “MIC (μg/mL) P. aeruginosa” value (Pseudomonas aeruginosa; Pseudomonas aeruginosa, 96-well plate, 37° C., 10 h) is reported as 12.5 µg/mL. The “MIC (μg/mL) E. coli BL21” value (E. coli BL21; E. coli BL21, 96-well plate, 37° C., 10 h) was 12.5 µg/mL, the “MIC (μg/mL) E. cloacae” value (Enterobacter cloacae; Enterobacter cloacae, 96-well plate, 37° C., 10 h) was 12.5 µg/mL and the “MIC (μg/mL) P. mirabilis” value (Proteus mirabilis; Proteus mirabilis, 96-well plate, 37° C., 10 h) was 25 µg/mL. For the same substance, the “MIC (μg/mL) S. marcescens” value (Serratia marcescens; Serratia marcescens, 96-well plate, 37° C., 10 h) was 25 µg/mL, the “MIC (μg/mL) K. pneumonia” value (Klebsiella pneumonia; Klebsiella pneumonia, 96-well plate, 37° C., 10 h) was 25 µg/mL and the “MIC (μg/mL) P. vulgaris” value (Proteus vulgaris; Proteus vulgaris, 96-well plate, 37° C., 10 h) was 50 µg/mL. The “MIC (μg/mL) M. catarrhalis” value (Moraxella catarrhalis; Moraxella catarrhalis, 96-well plate, 37° C., 10 h) was 12.5 µg/mL and the “MIC (μg/mL) C. diversus” value (Citrobacter diversus; Citrobacter diversus, 96-well plate, 37° C., 10 h) was 12.5 µg/mL.
For “PRT1420 (GAWDCSVENGGCEHACNAIPGAPRCQCPAGAALQADGRSCT; listed as Homo sapiens)”, the “MIC against A. hydrophila” value (Aeromonas hydrophila; Aeromonas hydrophila, 10 h cultivation at 37° C.) was 25 µg/mL, the MIC (E. coli DH5α) was 12.5 µg/mL and the “MIC against P. aeruginosa” value (Pseudomonas aeruginosa; Pseudomonas aeruginosa, 10 h cultivation at 37° C.) was 12.5 µg/mL. The “MIC against E. coli BL21” value (E. coli BL21; [3]) was 12.5 µg/mL, the “MIC against E. cloacae” value (Enterobacter cloacae; Enterobacter cloacae, 10 h cultivation at 37° C.) was 12.5 µg/mL and the “MIC against P. mirabilis” value (Proteus mirabilis; Proteus mirabilis, 10 h cultivation at 37° C.) was 12.5 µg/mL. For the same substance, the “MIC against S. marcescens” value (Serratia marcescens; Serratia marcescens, 10 h cultivation at 37° C.) was 50 µg/mL, the “MIC against K. pneumonia” value (Klebsiella pneumonia; Klebsiella pneumonia, 10 h cultivation at 37° C.) was 12.5 µg/mL and the “MIC against P. vulgaris” value (Proteus vulgaris; Proteus vulgaris, 10 h cultivation at 37° C.) was 25 µg/mL. The “MIC against M. catarrhalis” value (Moraxella catarrhalis; Moraxella catarrhalis, 10 h cultivation at 37° C.) was 25 µg/mL and the “MIC against C. diversus” value (Citrobacter diversus; Citrobacter diversus, 10 h cultivation at 37° C.) was 12.5 µg/mL.
For “PRT715 (DIDECSSGFPCSQQCINTYGTYKCLCTDGYEIQPDNPNGCK; listed as Homo sapiens)”, the “MIC A. hydrophila” value (Aeromonas hydrophila; 96-well plate, 37° C., 10 h) was 12.5 µg/mL, the MIC (E. coli DH5α) was 50 µg/mL and the “MIC P. aeruginosa” value (Pseudomonas aeruginosa; 96-well plate, 37° C., 10 h) was 25 µg/mL. For the same substance, the “MIC E. coli BL21” value (E. coli BL21; 96-well plate, 37° C., 10 h) was 50 µg/mL, the “MIC E. cloacae” value (Enterobacter cloacae; 96-well plate, 37° C., 10 h) was 50 µg/mL and the “MIC P. mirabilis” value (Proteus mirabilis; 96-well plate, 37° C., 10 h) was 25 µg/mL. The “MIC S. marcescens” value (Serratia marcescens; 96-well plate, 37° C., 10 h) was 12.5 µg/mL, the “MIC K. pneumonia” value (Klebsiella pneumonia; 96-well plate, 37° C., 10 h) was 12.5 µg/mL and the “MIC P. vulgaris” value (Proteus vulgaris; 96-well plate, 37° C., 10 h) was 50 µg/mL. For the same substance, the “MIC M. catarrhalis” value (Moraxella catarrhalis; 96-well plate, 37° C., 10 h) was 12.5 µg/mL and the “MIC C. diversus” value (Citrobacter diversus; 96-well plate, 37° C., 10 h) was 50 µg/mL.
